Legend:
[1] = 101 kPa, Liquid
[2] = xn = mol fraction of the nth substance listed; conditions: 101 kPa, Liquid

CO [methanol]
[1]
Conditions	mass density [kg/m3]	viscosity [mPa·s]
293.15 K	791.9	0.585
298.15 K	787.2	0.545
303.15 K	782.48	0.508

CCOC(C)=O [ethyl acetate]
[1]
Conditions	mass density [kg/m3]	viscosity [mPa·s]
293.15 K	900.52	0.452
298.15 K	894.43	0.426
303.15 K	888.3	0.403

CCO [ethanol] + O
[2]
Conditions	mass density, 293.15 K [kg/m3]	mass density, 298.15 K [kg/m3]	mass density, 303.15 K [kg/m3]	viscosity, 293.15 K [mPa·s]	viscosity, 298.15 K [mPa·s]	viscosity, 303.15 K [mPa·s]
x2 = 0	789.75	785.46	781.15	1.187	1.082	0.987
x2 = 0.0501	795.99	791.68	787.35	1.277	1.153	1.046
x2 = 0.0986	802.09	797.77	793.41	1.371	1.232	1.111
x2 = 0.1961	814.88	810.54	806.14	1.549	1.38	1.237
x2 = 0.2961	829.05	824.7	820.29	1.735	1.531	1.357
x2 = 0.3991	845.25	840.94	836.55	1.975	1.659	1.515
x2 = 0.4971	862.82	–	–	2.225	–	–
x2 = 0.5989	884.07	879.89	875.63	2.479	2.115	1.821
x2 = 0.6991	908.69	904.65	900.55	2.705	2.275	1.941
x2 = 0.8001	937.33	933.65	929.9	2.7	2.3	1.937
x2 = 0.8996	965.71	963.24	960.61	2.223	1.86	1.58
x2 = 0.9499	979.28	977.72	975.93	1.63	1.388	1.207

Reference: the NIST ThermoML archive (doi:10.1016/j.jct.2007.05.004)
